In brackets after ≈: the same amount, converted by molar mass. Where a SMILES comes first, the peptide text is derived from it. [ ]: non-standard residue; d: D form.
Assays:
S. maltophilia SM103 = test: MIC/MBC broth microdilution; format: cell-based, Stenotrophomonas maltophilia; settings: D-BMAP18, strain SM103, n = 6
Method: (§1) MIC values were determined using the broth microdilution method.

S. maltophilia SM105 = test: MIC/MBC broth microdilution; format: cell-based, Stenotrophomonas maltophilia; settings: D-BMAP18, strain SM105, n = 6
Method: as §1

S. maltophilia SM106 = test: MIC/MBC broth microdilution; format: cell-based, Stenotrophomonas maltophilia; settings: D-BMAP18, strain SM106, n = 6
Method: as §1

S. maltophilia SM110 = test: MIC/MBC broth microdilution; format: cell-based, Stenotrophomonas maltophilia; settings: D-BMAP18, strain SM110, n = 6
Method: as §1

S. maltophilia SM120 = test: MIC/MBC broth microdilution; format: cell-based, Stenotrophomonas maltophilia; settings: D-BMAP18, strain SM120, n = 6
Method: as §1

S. maltophilia SM122 = test: MIC/MBC broth microdilution; format: cell-based, Stenotrophomonas maltophilia; settings: D-BMAP18, strain SM122, n = 6
Method: as §1

S. maltophilia SM123 = test: MIC/MBC broth microdilution; format: cell-based, Stenotrophomonas maltophilia; settings: D-BMAP18, strain SM123, n = 6
Method: as §1

S. maltophilia SM126 = test: MIC/MBC broth microdilution; format: cell-based, Stenotrophomonas maltophilia; settings: D-BMAP18, strain SM126, n = 6
Method: as §1

S. maltophilia SM130 = test: MIC/MBC broth microdilution; format: cell-based, Stenotrophomonas maltophilia; settings: D-BMAP18, strain SM130, n = 6
Method: as §1

S. maltophilia SM136 = test: MIC/MBC broth microdilution; format: cell-based, Stenotrophomonas maltophilia; settings: D-BMAP18, strain SM136, n = 6
Method: as §1

S. maltophilia SM139 = test: MIC/MBC broth microdilution; format: cell-based, Stenotrophomonas maltophilia; settings: D-BMAP18, strain SM139, n = 6
Method: as §1

S. maltophilia SM143 = test: MIC/MBC broth microdilution; format: cell-based, Stenotrophomonas maltophilia; settings: D-BMAP18, strain SM143, n = 6
Method: as §1

P. aeruginosa = format: cell-based, Pseudomonas aeruginosa; settings: 24 h
Method: P. aeruginosa, S. maltophilia, and Staphylococcus aureus strains were originally isolated from respiratory specimens of CF patients admitted to the “Bambino Gesù” Children Hospital in Rome and previously tested with AMPs (Pompilio et al., [2012]). P. aeruginosa RP73, and PAO1 were tested as reference strains.
as §1

C57BL/6NCrl mice = test: In vivo acute toxicity, intratracheal; design: species or system mouse
Method: In vivo acute toxicity of D-BMAP18 was evaluated in C57BL/6NCrl mice (n = 5/group) (male; 22 g; 6 ± 2 week-old) obtained from Charles River Laboratories Italia S.r.l. (Calco, Milan, Italy). Mice were intra-tracheally challenged with increasing doses (1, 2, 4, and 8 mg/kg) of D-BMAP18 prepared in sterile distilled water. Control mice received vehicle only (sterile distilled water). General health and animal behavior (ruffled coats, huddled position, lack of retreat in handler's presence), weight loss, and survival were monitored daily over a 5-day period, comparatively to control mice. […] Subsequently, lungs were removed en bloc from the chest via sterile excision and immediately weighed. These experiments were carried out in accordance with the recommendations of the Guide for the Care and Use of Laboratory Animals of the National Institute of Health and in accordance with the ethical standards of the Animal Care Committee of the “G. d'Annunzio” University of Chieti-Pescara. The protocol was approved by the Animal Care Committee of the “G. d'Annunzio” University of Chieti-Pescara.

[1] = broth microdilution, MH broth, 37°C 24 h
[2] = kills at least 99.9% of inoculum

## CC(C)C[C@@H](NC(=O)[C@@H](CCCCN)NC(=O)[C@@H](CCCCN)NC(=O)[C@@H](Cc1ccccc1)NC(=O)[C@@H](CC(C)C)NC(=O)[C@@H](CCCCN)NC(=O)[C@@H](CCCCN)NC(=O)[C@@H](Cc1ccccc1)NC(=O)[C@@H](CCCCN)NC(=O)[C@@H](CCCCN)NC(=O)[C@@H](CCCNC(=N)N)NC(=O)[C@@H](Cc1ccccc1)NC(=O)[C@@H](CCCNC(=N)N)NC(=O)[C@@H](CCCCN)NC(=O)[C@@H](Cc1ccccc1)NC(=O)[C@@H](CCCNC(=N)N)NC(=O)CN)C(=O)N[C@H](CO)C(N)=O [D-BMAP18] (H-G[dR][dF][dK][dR][dF][dR][dK][dK][dF][dK][dK][dL][dF][dK][dK][dL][dS]-NH2)
S. maltophilia SM103; [1]
  MIC: 4 µg/mL (≈ 1.71 µM)
S. maltophilia SM103; [2]
  MBC: 4 µg/mL (≈ 1.71 µM)
S. maltophilia SM105; [1]
  MIC: 8 µg/mL (≈ 3.42 µM)
S. maltophilia SM105; [2]
  MBC: 8 µg/mL (≈ 3.42 µM)
S. maltophilia SM106; [1]
  MIC: 32 µg/mL (≈ 13.7 µM)
S. maltophilia SM106; [2]
  MBC: 32 µg/mL (≈ 13.7 µM)
S. maltophilia SM110; [1]
  MIC: 4 µg/mL (≈ 1.71 µM)
S. maltophilia SM110; [2]
  MBC: 4 µg/mL (≈ 1.71 µM)
S. maltophilia SM120; [1]
  MIC: 8 µg/mL (≈ 3.42 µM)
S. maltophilia SM120; [2]
  MBC: 16 µg/mL (≈ 6.83 µM)
S. maltophilia SM122; [1]
  MIC: 16 µg/mL (≈ 6.83 µM)
S. maltophilia SM122; [2]
  MBC: 16 µg/mL (≈ 6.83 µM)
S. maltophilia SM123; [1]
  MIC: 16 µg/mL (≈ 6.83 µM)
S. maltophilia SM123; [2]
  MBC: 16 µg/mL (≈ 6.83 µM)
S. maltophilia SM126; [1]
  MIC: 16 µg/mL (≈ 6.83 µM)
S. maltophilia SM126; [2]
  MBC: 32 µg/mL (≈ 13.7 µM)
S. maltophilia SM130; [1]
  MIC: 8 µg/mL (≈ 3.42 µM)
S. maltophilia SM130; [2]
  MBC: 16 µg/mL (≈ 6.83 µM)
S. maltophilia SM136; [1]
  MIC: 8 µg/mL (≈ 3.42 µM)
S. maltophilia SM136; [2]
  MBC: 16 µg/mL (≈ 6.83 µM)
S. maltophilia SM139; [1]
  MIC: 8 µg/mL (≈ 3.42 µM)
S. maltophilia SM139; [2]
  MBC: 8 µg/mL (≈ 3.42 µM)
S. maltophilia SM143; [1]
  MIC: 8 µg/mL (≈ 3.42 µM)
S. maltophilia SM143; [2]
  MBC: 8 µg/mL (≈ 3.42 µM)
P. aeruginosa
  MIC90: 16 µg/mL (≈ 6.83 µM)
C57BL/6NCrl mice; 1 mg/kg single intratracheal instillation, day 5 p.e., n = 5/group
  macroscopic lung pathology (four-point score): No pulmonary damage
C57BL/6NCrl mice; 2 mg/kg single intratracheal instillation, day 5 p.e., n = 5/group, p < 0.05 vs control
  macroscopic lung pathology, median score (four-point scoring): 2.5
C57BL/6NCrl mice; 8 mg/kg single intratracheal instillation, day 5 p.e., n = 5/group, p < 0.01 vs control
  macroscopic lung pathology, median score (four-point scoring): 3
C57BL/6NCrl mice; 1, 2, 4, 8 mg/kg intratracheal, first 2 days p.e., regardless of dose, vs unexposed control
  change in body weight, first 2 days: significant (p<0.01) decrease
C57BL/6NCrl mice; 1-8 mg/kg intratracheal, over 5 days p.e., also at the lowest dose, dose-dependent
  change in body weight: significant reduction in body weight
